≈ marks a conversion by molar mass, not a printed value. Where two headings read alike, the source gives them in different places.
Assays:
[1] = test system: Giardia intestinalis Portland-1 (ATCC 30888); experiment: Minimum inhibitory concentration determination, micro-broth dilution, trophozoite motility; assay type: cell-based; details: for Fold Difference (Parent vs. Derivative): MIC of derivative relative to metronidazole; for activity relative to parent metronidazole: qualitative statement on MIC results
Experimental: Briefly, minimum inhibitory concentration was evaluated in an anti-protozoal assay against a protozoan strain, Giardia intestinalis Portland-1 (ATCC 30888), isolated from human. The organism, also referred to as Giardia lamblia, causes infection in the small intestine.
The susceptibility of G. intestinalis to the test compounds was determined using the micro-broth dilution analysis. The protozoan strain was cultured according to the supplier's recommendations. Thirteen milliliters of growth media (TYI-S-33 supplemented with bile) was inoculated with 100 μL of G. intestinalis growing culture and incubated at 37° C. for 72 hours. Following incubation, each test compound was diluted (in growth medium) to two times the high test concentration then further diluted in 1:2 increments to yield 11 test concentrations. Each test concentration (100 μL) was added in triplicate to designated wells on the plate. Trophozoites were added to each well of a 96-well round bottom plate in a volume of 100 μL at a density of 40,000 per well. The plates were cultured for 24 hours in an anaerobic chamber to assure the presence of low oxygen level.
Following the treatment incubation, cultures were visually evaluated for trophozoite motility. At each concentration, data was recorded as positive or negative for motility.
Each test compound was dissolved in DMSO to a final concentration of 80 mM. […] The starting high test concentration was to be as high as possible.

[2] = test system: Giardia intestinalis; experiment: In vitro antigiardial activity assay; assay type: cell-based
Experimental: Metronidazole (from two different sources) and samples prepared in accordance with Examples 1 and 2 were tested using conventional antimicrobial assay techniques for in vitro antigiardial activity at six concentrations with three-fold dilutions (10, 3.3, 1.1, 0.37, 0.122, 0.04 μg/mL). IC50 values (inhibition concentration) were determined.

[3] = lowest concentration completely inhibiting trophozoite motility, 24 hours, anaerobic chamber
[4] = average IC50 converted with MW, read-out: μM IC50
[5] = replicate 1, six concentrations, three-fold dilutions 10-0.04 μg/mL
[6] = replicate 2, six concentrations, three-fold dilutions 10-0.04 μg/mL
[7] = replicate 3, six concentrations, three-fold dilutions 10-0.04 μg/mL

Molecule	Fold Difference (Parent vs. Derivative) [1]	MIC [1, 3] [µg/mL]	activity relative to parent metronidazole [1]	IC50 [2, 4] [µM]	Average IC50 ([2]; average of IC50 1-3) [µg/mL]	IC50 1 [2, 5] [µg/mL]	IC50 2 [2, 6] [µg/mL]	IC50 3 [2, 7] [µg/mL]	further results
mPEG1k metronidazole carbonate	>256	>1000	reductions of activity	–	–	–	–	–	–
COCCOCCOCCOCCOCCOCCOCCOCCOCCOCCOCCOC(=O)OCCn1c([N+](=O)[O-])cnc1C [mPEG11 metronidazole carbonate]	256	1000 (≈ 1400 µM)	reductions of activity	–	–	–	–	–	–
COCCOCCOCCOC(=O)OCCn1c([N+](=O)[O-])cnc1C [mPEG3 metronidazole carbonate]	2	7.8 (≈ 21.6 µM)	–	2.88	1.04	0.82 (≈ 2.27 µM)	1.1 (≈ 3.04 µM)	1.2 (≈ 3.32 µM)	MIC ([1]; Giardia intestinalis): 7.8 µg/mL (≈ 21.6 µM)
mPEG21, metronidazole carbonate [mPEG21 metronidazole carbonate]	256	1000	reductions of activity	–	–	–	–	–	–
Cc1ncc([N+](=O)[O-])n1CCO [Metronidazole, reference compound]	1	–	–	3.96	0.68	–	–	–	MIC ([1]; Giardia duodenalis, ATCC30888, Giardia intestinalis, read-out: MIC): 3.9 µg/mL (≈ 22.8 µM); MIC ([1]; Giardia duodenalis, ATCC30888, lowest concentration completely inhibiting trophozoite motility, 24 hours, anaerobic chamber, read-out: MIC): 3.9 µg/mL (≈ 22.8 µM); IC50 ([2]; Giardia duodenalis, average IC50 converted with MW, read-out: μM IC50): 3.41 µM; IC50 ([2]; Giardia duodenalis, average of IC50 1-3, read-out: Average IC50): 0.58 µg/mL; IC50 ([2]; Giardia duodenalis, replicate 1, six concentrations, three-fold dilutions 10-0.04 μg/mL, read-out: IC50 1): 0.75 µg/mL; IC50 ([2]; Giardia duodenalis, replicate 2, six concentrations, three-fold dilutions 10-0.04 μg/mL, read-out: IC50 2): 0.3 µg/mL; IC50 ([2]; Giardia duodenalis, replicate 3, six concentrations, three-fold dilutions 10-0.04 μg/mL, read-out: IC50 3): 0.7 µg/mL
COCCOCCOCCOCCOCCOCCOCCOC(=O)OCCn1c([N+](=O)[O-])cnc1C [PEG7 Metronidazole carbonate, mPEG7 metronidazole carbonate]	–	–	–	7.51	4.03	4.5 (≈ 8.37 µM)	4.2 (≈ 7.81 µM)	3.4 (≈ 6.32 µM)	–

— patent US9233932B2, “Oligomer-nitroimidazole anti-infective conjugates” (NEKTAR THERAPEUTICS, priority 2007, dated 2016)
